Source: patent publication US7737138B2 (priority 2004, dated 2010)
Structures can show the parent of a compound that is named as a salt. Where two headings read alike, the source gives them in different places.

How the values were obtained:
[1] = target: full-length tau (T40) / 12 kD PHF-core tau fragment in fibroblast cells (3T6) (Homo sapiens, UniProt P10636); assay: cell-based; type: cell-based
[2] = target: tau-tau binding: truncated tau (residues 297-390; dGA) and full-length tau (T40) (Homo sapiens, UniProt P10636); conditions: for IC50: read-out: B50
Sequence of tau-tau binding: truncated tau (residues 297-390; dGA) and full-length tau (T40) (P10636 614-707): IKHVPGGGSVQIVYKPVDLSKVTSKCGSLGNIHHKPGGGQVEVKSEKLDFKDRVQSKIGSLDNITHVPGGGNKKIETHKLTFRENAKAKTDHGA

fibroblast cells (3T6) = test system: fibroblast cells (3T6); design: unit not given beside the values
[3] = test system: viruses such as HIV and West Nile Virus; conditions: MTC under the name Virostat, from Bioenvision Inc.; cited from earlier work

Sequence of full-length tau (T40) / 12 kD PHF-core tau fragment in fibroblast cells (3T6) (P10636 612-707): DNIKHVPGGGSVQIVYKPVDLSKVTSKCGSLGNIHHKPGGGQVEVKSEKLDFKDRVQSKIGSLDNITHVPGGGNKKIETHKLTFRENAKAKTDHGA

| Molecule | EC50 [1] [nM] | IC50 [2] [nM] | LD50 (fibroblast cells (3T6)) | B50 [2] | viricidal activity in vitro [3] | IC50 ([2]; concentration of compound required to inhibit the tau-tau binding by 50%, […]) [nM] |
| --- | --- | --- | --- | --- | --- | --- |
| 1,9-Diethyl Ethylthioninium chloride [DEETC] | 0.6 | 3700 | 1.6 ± 0.4 (13) |  |  |  |
| CCN(CC)c1ccc2nc3ccc(N(CC)CC)cc3[s+]c2c1 [ETZ, Ethylthioninium Chloride (ETC) Zinc Chloride (Double Salt)] | 60 |  |  | 145.4 ± 5.7 (5) |  |  |
| CN(C)c1ccc2nc3ccc(N(C)C)cc3[s+]c2c1 [MTC, Methythioninium Chloride] |  |  |  |  | potent viricidal activity |  |
| Ethyl-thioninium iodide [ETI] | 60 |  |  |  |  | > 500000 |
| Ethylthioninium Chloride [ETC] | 70 | 49000 | 32.0 ± 4.0 (26) |  |  |  |
